ThS net change data for 65 compounds are collected here from PMC7539012, “Hyperphosphorylated tau aggregation and cytotoxicity modulators screen identified prescription drugs linked to Alzheimer's disease and cognitive functions” (Scientific Reports, 2020).

Structures can show the parent of a compound that is named as a salt. Where two headings read alike, the source gives them in different places. Where a SMILES comes first, the peptide text is derived from it. Bridges are numbered along the chain shown (N, C = ends). [ ]: non-standard residue; d: D form. The star is where a group is joined. X2 = CCC(C)C(N)C1=NC(C(=O)*)CS1; dOrn = NCCC[C@@H](N)C(=O)O

This assay has as its system T1, 1N4R p-tau.
T1 construct: made in house; host or cells: E. coli (PIMAX system)
As to the kind of experiment: p-tau aggregation modulator screen of 1280-compound library (ThS fluorescence net change over 16 h).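 Note: 30 µM compound with 6 µM p-tau over 16 h.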 It is filed as biochemical.

[1] abbreviates: p-tau aggregation modulator screen of the compound library, ThS fluorescence net change.
[2] abbreviates: 1280-compound library screen, ThS fluorescence net change over 16 h.
[3] abbreviates: p-tau aggregation modulator screen of 1280-compound library, ThS fluorescence net change.
[4] abbreviates: p-tau aggregation modulator screen of 1280-compound library, […].
Where [5] appears, read: library screen, ThS fluorescence net change over 16 h with p-tau.
The mark [6] stands for this setting: 1280-compound library screen, […].

Take `CC(C)(Sc1cc(C(C)(C)C)c(O)c(C(C)(C)C)c1)Sc1cc(C(C)(C)C)c(O)c(C(C)(C)C)c1` [Probucol]: the ThS net change under setting [1] is given as 414.

Turning to `CC(C)NCC(O)c1ccc(NS(C)(=O)=O)cc1` (centres unmarked) [Sotalol hydrochloride], the ThS net change under setting [2] is reported as 404.

`CC(CN(C)C)C(C)(O)Cc1ccc(Cl)cc1.Cl` (centres unmarked) [Clobutinol hydrochloride] returned a ThS net change under setting [3] of 336.

Take `C1CCc2nnnn2CC1` [Pentylenetetrazole]: the ThS net change under setting [4] is on record as 365.

Under setting [3], `CN(C)C(=O)Oc1cc(OC(=O)N(C)C)cc(C(O)CNC(C)(C)C)c1.Cl` (centres unmarked) [Bambuterol hydrochloride] returned a ThS net change of 336.

Compound `C[C@]12CCC(=O)C=C1CC[C@@H]1[C@@H]2C(=O)C[C@@]2(C)[C@H]1CC[C@]2(O)C(=O)CO` [Cortisone] registered a ThS net change under setting [2] of 403.

For the compound `CCC(=O)OCC(=O)[C@@]1(OC(=O)CC)[C@H](C)C[C@H]2[C@H]3[C@H]([C@@H](O)C[C@@]21C)[C@@]1(C)C=CC(=O)C=C1C[C@H]3Cl` [Alclometasone dipropionate], the ThS net change under setting [4] came to 363.

Under setting [2], `NCCc1ccc(O)c(O)c1` [Dopamine hydrochloride] displayed a ThS net change of 404.

In turn, `CCCN1C[C@H](CSC)C[C@@H]2c3cccc4[nH]cc(c34)C[C@H]21` [Pergolide mesylate] gave a ThS net change under setting [5] of 279.

Consider `Nc1ncnc2c1ncn2[C@@H]1O[C@H](CO)[C@@H](O)[C@@H]1O` [Vidarabine], for which, under setting [2], the ThS net change is given as 401.

Compound `C=CCOc1ccccc1OCC(O)CNC(C)C` (centres unmarked) [Oxprenolol hydrochloride] returned a ThS net change under setting [2] of 404.

In the case of `O=C(O)Cc1ccc(-c2ccccc2)cc1` [Felbinac], the ThS net change under setting [2] was found to be 405.

`CC1(C)O[C@@H]2[C@@H](CO[C@@]3(COS(N)(=O)=O)OC(C)(C)O[C@@H]23)O1` [Topiramate] registered a ThS net change under setting [2] of 392.

Under setting [1], `COc1ncnc(NS(=O)(=O)c2ccc(N)cc2)c1OC` [Sulfadoxine] registered a ThS net change of 513.

For the compound `CC(NCCC(c1ccccc1)c1ccccc1)c1ccccc1` (centres unmarked) [Fendiline hydrochloride], under setting [3], the ThS net change worked out at 335.

In the case of `CCN1CCN(C(=O)N[C@@H](C(=O)N[C@@H]2C(=O)N3C(C(=O)O)=C(CSc4nnnn4C)CS[C@H]23)c2ccc(O)cc2)C(=O)C1=O` [Cefoperazone dihydrate], the ThS net change under setting [3] stood at 363.

In the case of `N=C(N)N/N=C/c1c(Cl)cccc1Cl` [Guanabenz acetate], under setting [2], the ThS net change was determined as 405.

The compound `CCCCC(C)(O)C/C=C/[C@H]1[C@H](O)CC(=O)[C@@H]1CCCCCCC(=O)OC` (mixture of isomers) [Misoprostol] returned a ThS net change under setting [1] of 495.

Regarding `Cc1cccc(N(C)C(=S)Oc2ccc3ccccc3c2)c1` [Tolnaftate], the ThS net change under setting [5] was found to be 219.

The compound `N[C@@H]1CON=C1O` [D-cycloserine] displayed a ThS net change under setting [2] of 405.

As for `CN[C@@H]1C[C@@H](c2ccc(Cl)c(Cl)c2)c2ccccc21` [Indatraline hydrochloride], the ThS net change under setting [6] amounted to 388.

Under setting [2], `CCCN[C@H]1CCc2nc(N)sc2C1` [Pramipexole dihydrochloride] displayed a ThS net change of 385.

`CSc1nc2cc(Cl)c(Oc3cccc(Cl)c3Cl)cc2[nH]1` [Triclabendazole]: the ThS net change under setting [2] is reported as 382.

`CC(C)c1c(C(=O)Nc2ccccc2)c(-c2ccccc2)c(-c2ccc(F)cc2)n1CC[C@@H](O)C[C@@H](O)CC(=O)O` [Atorvastatin] returned a ThS net change under setting [1] of 488.

`CC[C@H](C)[C@H]1O[C@]2(CC[C@@H]1C)C[C@@H]1C[C@@H](C/C=C(\C)[C@@H](O[C@H]3C[C@H](OC)[C@@H](O[C@H]4C[C@H](OC)[C@@H](O)[C@H](C)O4)[C@H](C)O3)[C@@H](C)/C=C/C=C3\CO[C@@H]4[C@H](O)C(C)=C[C@@H](C(=O)O1)[C@]34O)O2` [Ivermectin] came in with a ThS net change of 543.

On to `CCCCC(=O)N(Cc1ccc(-c2ccccc2-c2nnn[nH]2)cc1)[C@H](C(=O)O)C(C)C` [Valsartan], for which the ThS net change under setting [1] turned out to be 417.

Consider `N[C@@H](C(=O)N[C@@H]1C(=O)N2C(C(=O)O)=C(Cl)CC[C@H]12)c1ccccc1` [Loracarbef], for which the ThS net change under setting [3] was found to be 361.

In turn, `CC1(O)CCOC(=O)C1` (centres unmarked) [Mevalonic-D, L acid lactone] registered a ThS net change under setting [1] of 438.

`CCC(=O)[C@@]1(C)[C@H](C)C[C@H]2[C@@H]3CCC4=CC(=O)C=C[C@]4(C)[C@H]3[C@@H](O)C[C@@]21C` [Rimexolone]: the ThS net change under setting [1] is given as 434.

For the compound `CN(C)CCC(c1ccc(Br)cc1)c1ccccn1` (centres unmarked) [Brompheniramine maleate], the ThS net change under setting [2] stood at 379.

Compound `COc1ccccc1N1CCN(CCCNc2cc(=O)n(C)c(=O)n2C)CC1` [Urapidil hydrochloride] had a ThS net change under setting [2] of 388.

For `CNCCC(Oc1ccccc1OC)c1ccccc1` (centres unmarked) [Nisoxetine hydrochloride], the ThS net change came to 364.

Take `O=C(CCCCCCC(=O)Nc1ccccc1)NO` [Vorinostat]: the ThS net change under setting [2] is given as 398.

The compound `CC[C@H]1OC(=O)[C@H](C)[C@@H](O[C@H]2C[C@@](C)(OC)[C@@H](O)[C@H](C)O2)[C@H](C)[C@@H](O[C@@H]2O[C@H](C)C[C@H](N(C)C)[C@H]2O)[C@](C)(O)C[C@@H](C)CN(C)[C@H](C)[C@@H](O)[C@]1(C)O` [Azithromycin] yielded a ThS net change under setting [1] of 467.

`C[C@]12CC[C@@H]3c4ccc(OS(=O)(=O)O)cc4CC[C@H]3[C@@H]1CCC2=O` [Estropipate] registered a ThS net change under setting [3] of 359.

Regarding `CC(C)C[C@H]1C(=O)N2CCC[C@H]2[C@]2(O)O[C@](NC(=O)[C@@H]3C=C4c5cccc6[nH]c(Br)c(c56)C[C@H]4N(C)C3)(C(C)C)C(=O)N12.CS(=O)(=O)O` [Bromocryptine mesylate], the ThS net change came out at 296.

In turn, `CCCOc1ccccc1-c1nc2nn[nH]c2c(=O)[nH]1` [Zaprinast] had a ThS net change under setting [3] of 335.

Under setting [1], `C[C@H](Cc1cc2c(c(C(N)=O)c1)N(CCCO)CC2)NCCOc1ccccc1OCC(F)(F)F` [Silodosin] returned a ThS net change of 478.

The compound `CC(=O)Nc1ccc(CC(=O)O)cc1` [Actarit] registered a ThS net change under setting [1] of 435.

With `NC[C@@H]1O[C@H](O[C@H]2[C@@H](O)[C@H](O[C@@H]3[C@@H](O)[C@H](N)C[C@H](N)[C@H]3O[C@H]3O[C@H](CO)[C@@H](O)[C@H](O)[C@H]3N)O[C@@H]2CO)[C@H](N)[C@@H](O)[C@@H]1O` [Paromomycin sulfate], the ThS net change is reported as 472.

Take `CN1CCOC(c2ccccc2)c2ccccc2C1` (centres unmarked) [Nefopam hydrochloride]: under setting [5], the ThS net change is 324.

The compound `CC(C)C(=O)Nc1ccc([N+](=O)[O-])c(C(F)(F)F)c1` [Flutamide] yielded a ThS net change under setting [3] of 331.

The compound `NS(=O)(=O)c1cc2c(cc1C(F)(F)F)NCNS2(=O)=O` [Hydroflumethiazide] registered a ThS net change under setting [1] of 425.

In turn, `CCOc1nc2cccc(C(=O)O)c2n1Cc1ccc(-c2ccccc2-c2nnn[nH]2)cc1` [Candesartan] returned a ThS net change under setting [1] of 415.

Under setting [1], `CCOC(=O)[C@H](CCc1ccccc1)N[C@@H](C)C(=O)N1CCC[C@H]1C(=O)O` [Enalapril maleate] returned a ThS net change of 2088.

In the case of `CCC(C)C(N)C1=NC(C(=O)N[C@@H](CC(C)C)C(=O)N[C@H](CCC(=O)O)C(=O)N[C@H](C(=O)N[C@H]2CCCCNC(=O)[C@H](CC(N)=O)NC(=O)[C@@H](CC(=O)O)NC(=O)[C@H](Cc3cnc[nH]3)NC(=O)[C@@H](Cc3ccccc3)NC(=O)[C@H]([C@@H](C)CC)NC(=O)[C@@H](CCCN)NC2=O)[C@@H](C)CC)CS1` (some centres unmarked) [Bacitracin] (X2-L[dE]IK[dOrn]I[dF]H[dD]N; lactam 4-C), under setting [1], the ThS net change is listed as 479.

The compound `COc1cc(Cc2cnc(N)nc2N)cc(OC)c1OC` [Trimethoprim] had a ThS net change under setting [3] of 360.

Under setting [4], `COc1cccc([C@@]2(O)CCCC[C@@H]2CN(C)C)c1.Cl` [Tramadol hydrochloride] showed a ThS net change of 373.

For the compound `CN(C)C(=O)Oc1cccc([N+](C)(C)C)c1` [Neostigmine bromide], under setting [6], the ThS net change was 409.

Turning to `Cl.Cl.Cl.Cl.Cl.NCCNCCNCCNCCN`, the ThS net change under setting [2] was 394.

Under setting [2], `Cl.N=C(N)NC(=N)N1CCOCC1` [Moroxidine hydrochloride] gave a ThS net change of 379.

Take `NNC(=O)c1ccncc1` [Isoniazid]: the ThS net change under setting [2] was 404.

Compound `CCc1cc(Cl)c(OC)c(C(=O)NC[C@@H]2CCCN2CC)c1O.Cl` [S(-)Eticlopride hydrochloride] returned a ThS net change under setting [3] of 329.

`C=C1C(=O)O[C@H]2[C@H]1CC/C(C)=C/CC[C@@]1(C)O[C@@H]21` [Parthenolide]: the ThS net change under setting [1] is listed as 434.

On to `COc1cc2c(cc1OC)C(C)NCC2.Cl` (centres unmarked), for which, under setting [4], the ThS net change is recorded as 359.

As for `Clc1ccc(COC(Cn2ccnc2)c2ccc(Cl)cc2Cl)c(Cl)c1` (centres unmarked) [Miconazole], under setting [5], the ThS net change stood at 316.

As for `O=C(O)CNC(=O)C(CS)Cc1ccccc1` (centres unmarked) [Thiorphan], the ThS net change under setting [1] worked out at 462.

Turning to `NCCCC(O)(P(=O)(O)O)P(=O)(O)O` [Alendronate sodium], the ThS net change amounted to 381.

In turn, `CCCC[N+]1(C)[C@@H]2C[C@@H](OC(=O)[C@H](CO)c3ccccc3)C[C@H]1[C@@H]1O[C@@H]12.[Br-]` (some centres unmarked) [Butylscopolammonium (n-) bromide] returned a ThS net change under setting [2] of 388.

Turning to `CCN(CC)CCOC(=O)c1ccc(N)cc1` [Procaine hydrochloride], under setting [3], the ThS net change turned out to be 362.

Consider `Nc1nc2c(ncn2CCC(CO)CO)c(=O)[nH]1` [Penciclovir], for which the ThS net change under setting [2] worked out at 397.

Under setting [2], `CNCCC=C1c2ccccc2CCc2ccccc21` [Nortriptyline hydrochloride] gave a ThS net change of 380.

Consider `CCC(=O)O[C@@H](O[P@](=O)(CCCCc1ccccc1)CC(=O)N1C[C@H](C2CCCCC2)C[C@H]1C(=O)O)C(C)C` [Fosinopril], for which the ThS net change under setting [1] amounted to 587.

In turn, `COc1ccc(C(=O)c2ccccc2)c(O)c1` [Oxybenzone] gave a ThS net change under setting [2] of 383.

In turn, `Nc1nc(F)nc2c1ncn2[C@@H]1O[C@H](CO)[C@@H](O)[C@@H]1O` [Fludarabine] gave a ThS net change under setting [1] of 428.
